How the values were obtained:
Format in all cases: cell-based
[1] = tested on: Sensitive Cell Line (HCT116, RKO, SW620, LS147T); experiment: Average oxaliplatin AUC over sensitive colorectal cancer cell lines
Method: (§1) Four hours after the medium change, the cells were treated with oxaliplatin, 5-FU, Irinotecan, and folinic acid. Five days after drug treatment, intracellular ATP expression was determined using the ATPlite assay kit (PerkinElmer), and the data were expressed in terms of cell viability, IC50, and AUC.
(§2) As the standard for confirming that cells are sensitive to the drug, the response of the cells to the drug was assumed to be 100%, and the luminescence value of surviving cells after drug treatment was analyzed and compared with the quantified drug response value.
(§3) Based on the assumption that the factor that increases the resistance of the organoids to oxaliplatin is an activator or inhibitor that changes the phenotype, the organoids prepared by excluding some or all of activators and inhibitors as shown in Table 4 below were treated with oxaliplatin.
(§4) In order to confirm reduced resistance to oxaliplatin, ECT116, RKO, SW620, and LS147T cell lines, which are highly sensitive to oxaliplatin, and HT29, HTC15, CoLo205, and Lovo cell lines, which are low sensitive to oxaliplatin, were used.
(§5) When the above results were combined with the results shown by cell lines with high sensitivity to oxaliplatin and cell lines with low sensitivity to oxaliplatin, the result data shown in FIGS. 23 and 24 and Tables 5 to 7 below were obtained.

SW620 cells = experiment: ATPlite cell viability after oxaliplatin, SW620 cells in organoid culture media
Method: (§6) Advanced DMEM/F12+++ (hereinafter referred to as “Ad/DF+++”) was used to produce colorectal cancer organoids. Ad/DF+++ was refrigerated at 4° C. until use, and was used in a cold state during cell washing. Ad/DF+++ medium containing the reagents shown in Table 1 below along with Ad/DF 1× (Gibco) was prepared.
(§7) After preparing the Ad/DF+++ medium containing the above reagents, an appropriate amount of Matrigel (Corning #356231) was added so that the ratio between Matrigel and cells suspended in the Ad/DF+++ medium was 7:3. Then, the cells were plated on low attachment well plates at an appropriate density. The density and the type and number of well plates were determined according to the characteristics of each cell type. The medium was prepared according to the composition shown in Table 2 below, and the cells were cultured (expanded) until the required level was reached while the medium was replaced every 3 to 4 days.
If the organoids were expanded as needed for the experiment, the medium was carefully removed, taking care not to touch the Matrigel. The cells were separated from the Matrigel by pipetting about 20 times with 1 ml of cold Ad/DF+++. The cells in 1 to 4 wells per 6-well plate were collected in one 50 ml tube. If cells are collected from more than 4 wells into one tube, the Metrigel may not be washed properly. For this reason, the cells were placed in several tubes. Thereafter, Ad/DF+++ was poured to 20 to 50 ml of each tube, followed by centrifugation at 400 g for 3 minutes at 4° C. The cells were dissociated with 1 to 2 mL of TrypLE™ Express Enzyme (Gibco, 1264-013), transferred to low-attachment 24 well plates, and then treated with 10 μM of Y-27632. Next, the cells were cultured in a CO2 incubator for 5 minutes at 37° C. After pipetting about 20 times, whether the cells would be dissociated into single cells was checked by microscopic observation. If the cells were not dissociated into single cells, the culture under CO2 and pipetting processes were repeated. […] After suspending the pellet in Ad/DF+++, the cells were counted and diluted with medium according to the required number of cells. […]
as §1
(§8) As the standard for confirming that cells are sensitive to the drug, the response of the cells to the drug was assumed to be 100%, and the luminescence value of surviving cells after drug treatment was analyzed and compared with the quantified drug response value. […]

HT29 cells = experiment: ATPlite cell viability after oxaliplatin, HT29 cells in organoid culture media
Method: as §6
as §7, with “The medium was prepared according to the composition shown in Table 2 below, and the cells were cultured (expanded) until the required level was reached while the medium was replaced every 3 to 4 days.” left out
(§9) If the organoids were expanded as needed for the experiment, the medium was carefully removed, taking care not to touch the Matrigel. […] After suspending the pellet in Ad/DF+++, the cells were counted and diluted with medium according to the required number of cells. […]
as §1, with “AUC. […]” for “AUC.”

RKO cells = experiment: ATPlite cell viability after oxaliplatin, RKO cells in organoid culture media
Method: as §6, §7
(§10) If the organoids were expanded as needed for the experiment, the medium was carefully removed, taking care not to touch the Matrigel. The cells were separated from the Matrigel by pipetting about 20 times with 1 ml of cold Ad/DF+++. The cells in 1 to 4 wells per 6-well plate were collected in one 50 ml tube. If cells are collected from more than 4 wells into one tube, the Metrigel may not be washed properly. For this reason, the cells were placed in several tubes. […] After suspending the pellet in Ad/DF+++, the cells were counted and diluted with medium according to the required number of cells. […]
as §1, §8

Total Cell Line = experiment: Average oxaliplatin AUC over all colorectal cancer cell lines
Method: as §1, §2, §3, §4, §5

[2] = tested on: Resistant Cell Line (HT29, HTC15, CoLo205, Lovo); experiment: Average oxaliplatin AUC over resistant colorectal cancer cell lines
Method: as §1, §2, §3, §4, §5

LoVo cells = experiment: ATPlite cell viability after oxaliplatin, LoVo cells in organoid culture media
Method: as §6
as §7, with “The medium was prepared according to the composition shown in Table 2 below, and the cells were cultured (expanded) until the required level was reached while the medium was replaced every 3 to 4 days.” left out
as §9
as §1, with “AUC. […]” for “AUC.”

LS147T cells = experiment: ATPlite cell viability after oxaliplatin, LS147T cells in organoid culture media
Method: as §6, §7, §10, §1, §8

## O=C1[O][Pt]2([NH][C@@H]3CCCC[C@H]3[NH]2)[O]C1=O [oxaliplatin]
[1]; average over sensitive cell lines, Ex1 medium (inhibitors and activators)
  EX1_AUC: 396.08
[1]; average over sensitive cell lines, Ex2 medium (no inhibitors, no activators)
  EX2_AUC: 347.78
[1]; average over sensitive cell lines, normal cell-line culture
  normal_AUC: 274.55
[1]; cell lines with high sensitivity, FIG. 23
  sensitivity to oxaliplatin, Ex2 compared with Ex1: higher in Ex2 without both inhibitors and activators than in Ex1
[1]; sensitive cell lines
  EX1 − EX2 (AUC difference): 48.30
SW620 cells; SW620, FIG. 9
  AUC value, Ex2 compared with other organoid culture conditions: lower in the organoid culture conditions of Ex2
  AUC value, Ex3 and Ex4 compared with Ex1: no significant difference in AUC values from Ex1
SW620 cells; SW620, FIG. 10
  IC50 value, Ex2 compared with Ex1: lower in Ex2 than in Ex1
SW620 cells; SW620 in Ex2, log [oxaliplatin] value 1, FIG. 11
  cell viability: 50%
HT29 cells; HT29, FIG. 15
  AUC value, Ex1 to Ex4 compared: Ex1 to Ex3 showed similar AUC values, but Ex4 showed slightly lower AUC values than Ex1 to Ex3
HT29 cells; HT29 cell line and Ex1 to Ex4, FIG. 16
  cell viability versus oxaliplatin concentration: did not decrease under all the culture conditions
RKO cells; FIG. 6
  AUC value, Ex1 to Ex4 compared: the lowest in the organoid culture conditions of Ex2
RKO cells; FIG. 7
  IC50 value, Ex2 compared with Ex1: significantly lower in Ex2 than in Ex1
RKO cells; MEM control, Ex1, Ex2, FIG. 8
  cell viability versus oxaliplatin concentration: fastest decrease in cell viability, followed by Ex2
Total Cell Line; average over total cell lines, Ex1 medium
  EX1_AUC: 408.05
Total Cell Line; average over total cell lines, Ex2 medium
  EX2_AUC: 384.32
Total Cell Line; average over total cell lines, normal cell-line culture
  normal_AUC: 330.83
Total Cell Line; total cell lines
  EX1 − EX2 (AUC difference): 23.73
[2]; average over resistant cell lines, Ex1 medium
  EX1_AUC: 420.02
[2]; average over resistant cell lines, Ex2 medium
  EX2_AUC: 420.86
[2]; average over resistant cell lines, normal cell-line culture
  normal_AUC: 391.80
[2]; cell lines with low sensitivity, FIG. 24
  sensitivity to oxaliplatin, Ex2 compared with Ex1: no difference in sensitivity to oxaliplatin between Ex1 and Ex2
[2]; resistant cell lines
  EX1 − EX2 (AUC difference): −0.85
LoVo cells; LoVo organoids, log [oxaliplatin] values approaching 2, FIG. 22
  cell viability: ≥ 50%
LoVo cells; LoVo, FIG. 21
  AUC values of Ex2 to Ex4 compared with Ex1: higher than that of Ex1
LS147T cells; FIG. 12
  AUC value, Ex2 compared with other organoid culture conditions: lower in the organoid culture conditions of Ex2
  AUC value, Ex3 and Ex4 compared with Ex1: no difference in AUC values from Ex1
LS147T cells; FIG. 13
  IC50 value, Ex2 compared with Ex1: higher in Ex2 than in Ex1
